Reference: ChEMBL document CHEMBL1201862, “PubChem BioAssay data set” (2004)
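Interpolation was linear, between the two tested concentrations surrounding the appropriate level; five concentrations were tested over 48 hours in 96-well plates. Abbreviation: GI50, concentration required for 50% inhibition of growth.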 Calls of active or inactive are those of the source. Cut-off read from the data, not from the text of the source: active = GI50 up to about 1.1 µM and inactive = higher.

What was measured:
Test in all cases: NCI anticancer screen, dose series, 48 h
[1] = tested on: NCI/ADR-RES
[2] = tested on: 786-0
[3] = tested on: COLO 205
[4] = tested on: SK-MEL-5
[5] = tested on: DU-145
[6] = tested on: K562
[7] = tested on: OVCAR-4
[8] = tested on: NCI-H23
[9] = tested on: MDA-N
[10] = tested on: RXF 393
[11] = tested on: ACHN
[12] = tested on: Malme-3M
[13] = tested on: A498
[14] = tested on: TK-10
[15] = tested on: SK-OV-3
[16] = tested on: BT-549
[17] = tested on: MOLT-4
[18] = tested on: SNB-19
[19] = tested on: EKVX
[20] = tested on: UO-31

| SMILES | GI50 [1] | GI50 [2] | GI50 [3] | GI50 [4] | GI50 [5] | GI50 [6] | GI50 [7] | GI50 [8] | GI50 [9] | GI50 [10] | GI50 [11] | GI50 [12] | GI50 [13] | GI50 [14] | GI50 [15] | GI50 [16] | GI50 [17] | GI50 [18] | GI50 [19] | GI50 [20] |
| --- | --- | --- | --- | --- | --- | --- | --- | --- | --- | --- | --- | --- | --- | --- | --- | --- | --- | --- | --- | --- |
| CC(=O)c1c2c(c3ccccc3c1O)O[C@@H]1OCC[C@H]21 | > 100 µM (inactive) | > 100 µM (inactive) | > 100 µM (inactive) | > 100 µM (inactive) | > 100 µM (inactive) | > 100 µM (inactive) | 53.3 µM (inactive) | > 100 µM (inactive) | > 100 µM (inactive) | > 100 µM (inactive) | > 100 µM (inactive) | > 100 µM (inactive) | > 100 µM (inactive) | > 100 µM (inactive) | > 100 µM (inactive) | 48.4 µM (inactive) | > 100 µM (inactive) | > 100 µM (inactive) | > 100 µM (inactive) | > 100 µM (inactive) |
| CCOC(=O)CCC(C(=O)OCC)n1nnc2cc(Nc3c(C)[n+]([O-])c4cc(F)c(OCC)cc4[n+]3[O-])ccc21 (stereo not given) | > 100 µM (inactive) | 34.5 µM (inactive) | > 100 µM (inactive) | > 100 µM (inactive) | > 100 µM (inactive) | > 100 µM (inactive) | > 100 µM (inactive) | 67.8 µM (inactive) | > 100 µM (inactive) | 14 µM (inactive) | 52.6 µM (inactive) | > 100 µM (inactive) | > 100 µM (inactive) | 48.3 µM (inactive) | > 100 µM (inactive) | > 100 µM (inactive) | > 100 µM (inactive) | 34.8 µM (inactive) | > 100 µM (inactive) | > 100 µM (inactive) |
| O=C1C=CC(=O)c2c1ccc1c3ccccc3n(-c3ccccc3[N+](=O)[O-])c21 | 5.05 µM (inactive) | 2.13 µM (inactive) | 2.07 µM (inactive) | 6.89 µM (inactive) | 4.68 µM (inactive) | 0.828 µM (active) | 2.59 µM (inactive) | 4.55 µM (inactive) | 3.04 µM (inactive) | 1.62 µM (inactive) | 1.71 µM (inactive) | 2.17 µM (inactive) | 20.7 µM (inactive) | 2.44 µM (inactive) | 17 µM (inactive) | 4.97 µM (inactive) | 0.543 µM (active) | 9.84 µM (inactive) | 8.22 µM (inactive) | 1.44 µM (inactive) |
| N#CC(c1ccccc1)N(CCc1ccccc1)C(=O)c1ccc(C(=O)N(CCc2ccccc2)C(C#N)c2ccccc2)cc1 (stereo not given) | 17.9 µM (inactive) | 22.6 µM (inactive) | 21.9 µM (inactive) | 13.5 µM (inactive) | 42.6 µM (inactive) | 20.9 µM (inactive) | 18.9 µM (inactive) | 25.5 µM (inactive) | 24 µM (inactive) | 21.3 µM (inactive) | 24 µM (inactive) | 19.3 µM (inactive) | 30.5 µM (inactive) | 13.9 µM (inactive) | 31.9 µM (inactive) | 14.5 µM (inactive) | > 10 µM (inactive) | 30.5 µM (inactive) | 34.4 µM (inactive) | 19.4 µM (inactive) |
| NCCCNCCCNCCCN | > 100 µM (inactive) | > 100 µM (inactive) | > 100 µM (inactive) | > 100 µM (inactive) | > 100 µM (inactive) | 25.2 µM (inactive) | > 100 µM (inactive) | > 100 µM (inactive) | > 100 µM (inactive) | > 100 µM (inactive) | > 100 µM (inactive) | > 100 µM (inactive) | > 100 µM (inactive) | > 100 µM (inactive) | > 100 µM (inactive) | > 100 µM (inactive) | 14.9 µM (inactive) | > 100 µM (inactive) | > 100 µM (inactive) | > 100 µM (inactive) |
| O=C(OC(/C=C/c1ccccc1)P1(=O)N(Cc2ccccc2)[C@@H]2CCCC[C@H]2N1Cc1ccccc1)c1ccccc1 (stereo not given in full) | 2.74 µM (inactive) | 4.38 µM (inactive) | 2.04 µM (inactive) | 3.14 µM (inactive) | 6.75 µM (inactive) | 3.37 µM (inactive) | 4.22 µM (inactive) | 3.09 µM (inactive) | 3.8 µM (inactive) | 3.78 µM (inactive) | 3.81 µM (inactive) | 3.54 µM (inactive) | 5.73 µM (inactive) | 4.82 µM (inactive) | 5.06 µM (inactive) | 4.26 µM (inactive) | 2.15 µM (inactive) | 5.43 µM (inactive) | 4.56 µM (inactive) | 3.34 µM (inactive) |
| CCCCc1ccc(Nc2nc(Cl)c3c(ncn3C3CC(Oc4ccc(C)cc4)C(COc4ccc(C)cc4)O3)n2)cc1 (stereo not given) | > 100 µM (inactive) | > 100 µM (inactive) | > 100 µM (inactive) | > 100 µM (inactive) | > 100 µM (inactive) | > 100 µM (inactive) | > 100 µM (inactive) | > 100 µM (inactive) | > 100 µM (inactive) | > 100 µM (inactive) | > 100 µM (inactive) | > 100 µM (inactive) | > 100 µM (inactive) | > 100 µM (inactive) | > 100 µM (inactive) | > 100 µM (inactive) | 33.9 µM (inactive) | > 100 µM (inactive) | > 100 µM (inactive) | > 100 µM (inactive) |
| Cc1ccc(S(=O)(=O)N/N=C2\CCC3(O)CC2(C)CCC2C3CC2(C)C)cc1 (stereo not given) | 33.7 µM (inactive) | 45.3 µM (inactive) | 22.5 µM (inactive) | 35.6 µM (inactive) | 36.2 µM (inactive) | > 100 µM (inactive) | 28.4 µM (inactive) | 49.5 µM (inactive) | 38.5 µM (inactive) | 52.8 µM (inactive) | 31.8 µM (inactive) | 53.2 µM (inactive) | 36.8 µM (inactive) | 29.2 µM (inactive) | 37 µM (inactive) | 65.3 µM (inactive) | 85.9 µM (inactive) | 56.6 µM (inactive) | 40.1 µM (inactive) | 24.4 µM (inactive) |
| C#CCn1c(=O)ccn(/C(=C\C(=O)OCC)C(=O)OCC)c1=O | 7.64 µM (inactive) | 2.3 µM (inactive) | 1.11 µM (active) | 20.5 µM (inactive) | 15.6 µM (inactive) | 3.54 µM (inactive) | 2.85 µM (inactive) | 14.9 µM (inactive) | 15.8 µM (inactive) | 2.08 µM (inactive) | 1.64 µM (inactive) | 1.89 µM (inactive) | 17.1 µM (inactive) | 1.81 µM (inactive) | 33 µM (inactive) | 12.4 µM (inactive) | 2.56 µM (inactive) | 19.9 µM (inactive) | 6.28 µM (inactive) | 13.5 µM (inactive) |
| Nc1ncnc2oc(C3OC(COC(=O)c4ccccc4)C(OC(=O)c4ccccc4)C3OC(=O)c3ccccc3)nc12 (stereo not given) | > 100 µM (inactive) | > 100 µM (inactive) | > 100 µM (inactive) | > 100 µM (inactive) | > 100 µM (inactive) | > 100 µM (inactive) | > 100 µM (inactive) | > 100 µM (inactive) | > 100 µM (inactive) | > 100 µM (inactive) | > 100 µM (inactive) | 96.2 µM (inactive) | 14.8 µM (inactive) | > 100 µM (inactive) | > 100 µM (inactive) | > 100 µM (inactive) | > 100 µM (inactive) | > 100 µM (inactive) | > 100 µM (inactive) | > 100 µM (inactive) |
| CC(=O)Nc1cc([As](=O)(O)O)ccc1O [ACETARSONE] | > 100 µM (inactive) | > 100 µM (inactive) | > 100 µM (inactive) | > 100 µM (inactive) | > 100 µM (inactive) | > 100 µM (inactive) | > 100 µM (inactive) | > 100 µM (inactive) | > 100 µM (inactive) | > 100 µM (inactive) | > 100 µM (inactive) | > 100 µM (inactive) | > 100 µM (inactive) | > 100 µM (inactive) | > 100 µM (inactive) | > 100 µM (inactive) | > 100 µM (inactive) | > 100 µM (inactive) | > 100 µM (inactive) | > 100 µM (inactive) |
| Oc1ccccc1/C=N/Nc1nnc2c3ccccc3c3ccccc3c2n1 | 47.9 µM (inactive) | > 100 µM (inactive) | > 100 µM (inactive) | 48.3 µM (inactive) | > 100 µM (inactive) | > 100 µM (inactive) | > 100 µM (inactive) | > 100 µM (inactive) | 29.9 µM (inactive) | 25.1 µM (inactive) | > 100 µM (inactive) | 59.6 µM (inactive) | > 100 µM (inactive) | 45.4 µM (inactive) | 58.3 µM (inactive) | > 100 µM (inactive) | > 100 µM (inactive) | > 100 µM (inactive) | > 100 µM (inactive) | > 100 µM (inactive) |
| O=c1[nH]c2ccccc2c2nc3ccccc3n12 | 81.1 µM (inactive) | 81.8 µM (inactive) | 29.2 µM (inactive) | 19.5 µM (inactive) | > 100 µM (inactive) | > 100 µM (inactive) | 2 µM (inactive) | 42.5 µM (inactive) | > 100 µM (inactive) | 28.7 µM (inactive) | 7.03 µM (inactive) | 13.1 µM (inactive) | > 100 µM (inactive) | 6.75 µM (inactive) | 14 µM (inactive) | 83 µM (inactive) | 36.9 µM (inactive) | > 100 µM (inactive) | 3.89 µM (inactive) | 8.49 µM (inactive) |
